Key:
[1] = test system: HCT116 cells; experiment: Acid insoluble fraction measurements (radiotracer incorporation into DNA); format: cell-based; settings: HCT116 human colon cancer cells in culture
Protocol: Acid extraction was performed to separate radioactivity associated with small molecules, RNA, and proteins from that of DNA. HCT116 cells were cultured in triplicate in 100 mm dishes and the cells were used for DNA extraction at 24 hr. Briefly 5 ml of the assay medium containing 50 μCi of tracer was added to each dish and the dishes incubated at 37° C. for 60 min. After incubation, the medium was removed, and cells were washed twice with ice-cold phosphate-buffered saline (PBS) and 100 μl aliquots of the washings were placed in counting tubes for counting. After washing, the cells were harvested by scraping, collected into counting tubes and then centrifuged at 1200 g at 4° C. for 10 minutes. The cells were homogenized in 1 mL of ice-cold 10% perchloric acid ([…] and centrifuged. The acid-soluble fraction (supernatant) was removed and 100 μl aliquots were counted in a gamma counter. The radioactivity in the acid-insoluble precipitate (largely DNA) was counted separately.

[2] = Radio-HPLC metabolite analysis; format: in vivo; settings: HCT116 tumour bearing mice, i.v., 30 min post injection, plasma, liver, kidney, urine, FIG. 5
Protocol: [^18F]FTT was produced using the method described above. HCT116 tumour bearing mice were injected intravenously via the lateral tail vein with [^18F]FTT (3.7 MBq) and after 30 min post injection were sacrificed by exsanguination via cardiac puncture under isofluorane anesthesia and then tissue removed. Samples were then snap frozen using dry ice and stored until use. To plasma (0.2 ml) was added ice-cold acetonitrile (1.5 ml) and the sample centrifuged (3 min, 4° C., 15493×g). The supernatant was then decanted and evaporated to dryness using a rotary evaporator (bath temperature 40° C.). The sample was then redissolved in 10% ethanol in PBS (1.1 ml) and filtered through a 0.22 μm filter and then injected. Tumour, liver and kidney samples were homogenised in ice-cold acetonitile (1.5 ml) using an IKA Turrax homogeniser and then processed as for plasma samples. Urine samples were diluted with 10% ethanol in PBS (1.1 ml) and filtered through a 0.22 μm filter and then injected.
HPLC conditions: Agilent 1100 series HPLC system (Agilent Technologies, Stockport, UK) equipped with a γ-RAM Model 3 gamma-detector (IN/US Systems Inc., Florida, USA) and the Laura 3 software (LabLogic, Sheffield, UK). […]

[3] = test system: HCT116 tumour; experiment: Dynamic PET imaging of tumour bearing mice; format: in vivo
Protocol: All animal experiments were done by licensed investigators in accordance with the United Kingdom Home Office Guidance on the Operation of the Animal (Scientific Procedures) Act 1986 and within guidelines set out by the United Kingdom Coordinating Committee for Cancer Research's Ad hoc Committee on Welfare of Animals in Experimental Neoplasia. Both tumour-bearing (Balb/c nude mice) and non-tumour bearing (Balb/c mice) animals were used. Human colon, HCT116, tumours were grown in Balb/c nu/nu mice (Harlan) as previously reported. Tumour dimensions were measured continuously using a caliper and tumour volumes were calculated by the equation: volume=(π/6)×a×b×c, where a, b, and c represent three orthogonal axes of the tumour. Mice were used when their tumours reached approximately 100 mm^3
Dynamic [^18F]FTT imaging scans were carried out on a dedicated small animal PET scanner, Siemens Inveon PET module, Siemens Molecular Imaging Inc., Knoxville, USA). The features of this instrument have been described previously. For scanning the tail veins of vehicle- or drug-treated mice were cannulated after induction of anaesthesia (isofluorane/O2/N2O). […] The count densities were averaged for all ROIs at each of the 19 time points to obtain a time versus radioactivity curve (TAC). […]

In the case of `Cc1cn([C@H]2C[C@H](O)[C@@H](CO)S2)c(=O)n(Cc2cn(CC[18F])nn2)c1=O` [[^18F]FTT, [^18F]N^3-((1-(2-Fluoroethyl)-1H-[1,2,3]-triazol-4-yl)methyl)-4′-thio-β-thymidine], the “incorporation into tumour cells in culture” value [1] is reported as “readily incorporated”, the metabolic stability [2] is reported as “metabolically stable in mice” and the “tissue pharmacokinetics (time versus radioactivity curves)” value ([3]; 60 min dynamic scan, FIG. 4) is reported as “simple tissue pharmacokinetics”. For the same molecule, the “localisation on PET images” value ([3]; i.v. via tail vein, FIG. 3) was “localisation in tumour, kidney, liver and the early part of the small intestines”.

From patent publication US20110236312A1, “NUCLEOSIDE ANALOGUES USEFUL AS POSITRON EMISSION TOMOGRAPHY (PET) IMAGING AGENTS” (IMPERIAL INNOVATIONS LIMITED, priority 2008, published 2011)
